How the values were obtained:
[1] = target: T1, N-terminal His-tagged human Src (Homo sapiens, UniProt P12931); assay: Src kinase inhibition assay (33P-ATP filter assay); format: biochemical
T1 construct: His (N); purchased Upstate USA Inc, 706 Forest Street, Charlottesville, Va

recombinant Aurora A = target: T2, recombinant Aurora A (Homo sapiens, UniProt O14965); assay: Aurora A (Aurora 2) inhibition assay, Z'-Lyte kinase assay; format: biochemical; conditions: group with IC50 greater than 100 nM; ATP 10 μM, 1 h
T2 construct: purchased Upstate, Lake Placid, N.Y
T2 sequence (O14965 1-403): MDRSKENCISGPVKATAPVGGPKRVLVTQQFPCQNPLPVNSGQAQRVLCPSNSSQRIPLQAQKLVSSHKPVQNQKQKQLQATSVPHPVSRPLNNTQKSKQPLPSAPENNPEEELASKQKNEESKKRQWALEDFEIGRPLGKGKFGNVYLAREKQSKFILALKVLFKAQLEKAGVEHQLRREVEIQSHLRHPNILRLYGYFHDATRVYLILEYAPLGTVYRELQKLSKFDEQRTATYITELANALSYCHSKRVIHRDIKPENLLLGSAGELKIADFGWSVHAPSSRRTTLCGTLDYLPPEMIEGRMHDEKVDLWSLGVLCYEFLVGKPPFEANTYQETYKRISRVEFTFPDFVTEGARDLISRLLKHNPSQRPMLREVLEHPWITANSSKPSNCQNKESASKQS
Procedure, shortened: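 Z'-Lyte FRET assay: Aurora A (200-500 ng/mL final), Ser/Thr 1 peptide (2 μM) and ATP (10 μM) in 50 mM HEPES pH 7.5, 10 mM MgCl2, 5 mM EGTA, 0.05% Brij-35, 2 mM DTT, 1 h at room temperature. Coumarin/fluorescein emission ratio converted to percent phosphorylation; dose-response curves plotted.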

HCT116 cells = assay: Whole cell cytotoxicity assay, Sulforhodamine B; format: cell-based; conditions: Homo sapiens, HCT-116, HCT116, 96 hours incubation, SRB; for IC50: read-out: IC50 values in this assay (HCT116 cell growth); for GI50: read-out: GI50 HCT116 cell growth
Procedure, shortened: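 HCT116 cells (500/well) in DMEM/10% FBS/2 mM glutamine were preincubated 24 h, then exposed to compound for 96 h at 37 °C, 5% CO2, in duplicate. Cells were fixed with TCA and stained with sulforhodamine B (A570). GI50, TGI and LC50 were derived relative to a time-zero plate and an untreated control.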

[2] = group with IC50 greater than 100 nM

T1 sequence (P12931 whole entry): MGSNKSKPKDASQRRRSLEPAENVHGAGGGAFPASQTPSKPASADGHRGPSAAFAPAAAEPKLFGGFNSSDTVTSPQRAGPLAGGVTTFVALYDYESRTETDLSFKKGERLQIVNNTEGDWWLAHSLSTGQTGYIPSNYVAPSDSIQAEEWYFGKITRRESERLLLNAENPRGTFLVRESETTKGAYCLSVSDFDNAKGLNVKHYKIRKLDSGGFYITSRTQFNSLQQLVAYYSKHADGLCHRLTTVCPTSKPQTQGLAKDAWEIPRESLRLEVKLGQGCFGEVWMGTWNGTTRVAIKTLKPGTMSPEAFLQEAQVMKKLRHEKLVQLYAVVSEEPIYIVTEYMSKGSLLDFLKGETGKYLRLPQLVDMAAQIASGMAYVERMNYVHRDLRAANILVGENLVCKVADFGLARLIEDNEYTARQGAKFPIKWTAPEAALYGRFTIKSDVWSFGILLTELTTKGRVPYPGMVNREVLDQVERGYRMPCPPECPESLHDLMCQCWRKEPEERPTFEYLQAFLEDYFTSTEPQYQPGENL

IC50 [1, 2] [nM] | IC50 (recombinant Aurora A) [nM] | IC50 ([1]; 40 minutes at room temperature) [nM] | Compound | IC50 (HCT116 cells) [nM] | GI50 (HCT116 cells) [nM]
≤ 1000 | ≤ 1000 |  | COCCN(C)c1cc(Nc2cc(C)[nH]n2)nc(-c2ccccc2Cl)n1 [Compound 63] | 1000 to 10000 | 
≤ 1000 | ≤ 1000 |  | COCCN(C)c1cc(Nc2cc(C)[nH]n2)nc(-c2cccc(C)c2)n1 [Compound 65, N^4-(2-methoxyethyl)-N^4-methyl-N^6-(5-methyl-1H-pyrazol-3-yl)-2-m-tolylpyrimidine-4,6-diamine] | 1000 to 10000 | 
≤ 1000 | ≤ 1000 |  | COCCN(C)c1cc(Nc2cc(C)[nH]n2)nc(-c2ccc(OC)cc2)n1 [Compound 67, N^4-(2-methoxyethyl)-2-(4-methoxyphenyl)-N^4-methyl-N^6-(5-methyl-1H-pyrazol-3-yl)pyrimidine-4,6-diamine] | 1000 to 10000 | 
≤ 1000 | ≤ 1000 |  | COCCN(C)c1cc(Nc2cc(C)[nH]n2)nc(-c2cccc(OC)c2)n1 [Compound 68, N^4-(2-methoxyethyl)-2-(3-methoxyphenyl)-N^4-methyl-N^6-(5-methyl-1H-pyrazol-3-yl)pyrimidine-4,6-diamine] |  | ≤ 1000
≤ 1000 | ≤ 1000 |  | Cc1cc(Nc2cc(NC3CCOCC3)nc(-c3ccc(C(C)(C)C)cc3)n2)n[nH]1 [Compound 70, 2-(4-tert-butylphenyl)-N^4-(5-methyl-1H-pyrazol-3-yl)-N^6-(tetrahydro-2H-pyran-4-yl)pyrimidine-4,6-diamine] | 1000 to 10000 | 
≤ 1000 | ≤ 1000 |  | Cc1cc(Nc2cc(NC3CCOCC3)nc(-c3ccc(C(F)(F)F)cc3)n2)n[nH]1 [Compound 79, N^4-(5-methyl-1H-pyrazol-3-yl)-N^6-(tetrahydro-2H-pyran-4-yl)-2-(4-(trifluoromethyl)phenyl)pyrimidine-4,6-diamine] | 1000 to 10000 | 
≤ 1000 | ≤ 1000 |  | Cc1cc(Nc2cc(NC3CCOCC3)nc(-c3cccc(C(F)(F)F)c3)n2)n[nH]1 [Compound 80, N^4-(5-methyl-1H-pyrazol-3-yl)-N^6-(tetrahydro-2H-pyran-4-yl)-2-(3-(trifluoromethyl)phenyl)pyrimidine-4,6-diamine] | 1000 to 10000 | 
≤ 1000 | ≤ 1000 |  | Cc1cc(Nc2cc(NC3CCOCC3)nc(-c3ccccc3C(F)(F)F)n2)n[nH]1 [Compound 81, N^4-(5-methyl-1H-pyrazol-3-yl)-N^6-(tetrahydro-2H-pyran-4-yl)-2-(2-(trifluoromethyl)phenyl)pyrimidine-4,6-diamine] | 1000 to 10000 | 
≤ 1000 | ≤ 1000 |  | Cc1cc(Nc2cc(N3CCN(C)CC3)nc(-c3cc(F)cc(Cl)c3)n2)n[nH]1 [Compound 97] |  | ≤ 1000
≤ 1000 | ≤ 1000 |  | Cc1cc(Nc2cc(N3CCN(C)CC3)nc(-c3ccc(C(F)(F)F)cc3)n2)n[nH]1 [Compound 100] | 1000 to 10000 | 
≤ 1000 | ≤ 1000 |  | Cc1cc(Nc2cc(N3CCN(C)CC3)nc(-c3ccccc3C(F)(F)F)n2)n[nH]1 [Compound 102, N-(5-methyl-1H-pyrazol-3-yl)-6-(4-methylpiperazin-1-yl)-2-(2-(trifluoromethyl)phenyl)pyrimidin-4-amine] | 1000 to 10000 | 
 | ≤ 1000 | ≤ 100 | Cc1cc(Nc2cc(N(C)CCN(C)C)nc(-c3ccc(C(C)(C)C)cc3)n2)n[nH]1 [Compound 103, 2-(4-tert-butylphenyl)-N^4-(2-(dimethylamino)ethyl)-N^4-methyl-N^6-(5-methyl-1H-pyrazol-3-yl)pyrimidine-4,6-diamine] |  | ≤ 1000
 | ≤ 1000 | ≤ 100 | Cc1cc(Nc2cc(N(C)CCN(C)C)nc(-c3cccc(N(C)C)c3)n2)n[nH]1 [Compound 107] | 1000 to 10000 | 
 | ≤ 1000 | ≤ 100 | Cc1cc(Nc2cc(N(C)CCN(C)C)nc(-c3cccc(C(F)(F)F)c3)n2)n[nH]1 [Compound 113, N^4-(2-(dimethylamino)ethyl)-N^4-methyl-N^6-(5-methyl-1H-pyrazol-3-yl)-2-(3-(trifluoromethyl)phenyl)pyrimidine-4,6-diamine] |  | ≤ 1000
 | ≤ 1000 | ≤ 100 | COCCN(C)c1cc(Nc2cc(C)[nH]n2)nc(-c2ccc(N(C)C)cc2)n1 [Compound 118, 2-(4-(dimethylamino)phenyl)-N^4-(2-methoxyethyl)-N^4-methyl-N^6-(5-methyl-1H-pyrazol-3-yl)pyrimidine-4,6-diamine] | 1000 to 10000 | 
≤ 1000 | ≤ 1000 |  | COCCN(C)c1cc(Nc2cc(C)[nH]n2)nc(-c2cccc(C(F)(F)F)c2)n1 [Compound 125, N^4-(2-methoxyethyl)-N^4-methyl-N^6-(5-methyl-1H-pyrazol-3-yl)-2-(3-(trifluoromethyl)phenyl)pyrimidine-4,6-diamine] | 1000 to 10000 | 
 | ≤ 1000 |  | COCCN(C)c1cc(Nc2cc(C)[nH]n2)nc(-c2ccccc2C(F)(F)F)n1 [Example 126, N^4-(2-methoxyethyl)-N^4-methyl-N^6-(5-methyl-1H-pyrazol-3-yl)-2-(2-(trifluoromethyl)phenyl)pyrimidine-4,6-diamine] | 1000 to 10000 | 
≤ 1000 | ≤ 1000 |  | Cc1cc(Nc2cc(NC3CCOCC3)nc(-c3cccc4ccccc34)n2)n[nH]1 [Example 127, N^4-(5-methyl-1H-pyrazol-3-yl)-2-(naphthalen-1-yl)-N^6-(tetrahydro-2H-pyran-4-yl)pyrimidine-4,6-diamine] | 1000 to 10000 | 
≤ 1000 | ≤ 1000 |  | Cc1cc(Nc2cc(N3CCN(C)CC3)nc(-c3cccc4c3OCCO4)n2)n[nH]1 [Example 136, 2-(2,3-dihydrobenzo[b][1,4]dioxin-5-yl)-N-(5-methyl-1H-pyrazol-3-yl)-6-(4-methylpiperazin-1-yl)pyrimidin-4-amine] | 1000 to 10000 | 
 | ≤ 1000 | ≤ 100 | Cc1cc(Nc2cc(N(C)CCN(C)C)nc(-c3ccc4ccccc4c3)n2)n[nH]1 [Example 142, N^4-(2-(dimethylamino)ethyl)-N^4-methyl-N^6-(5-methyl-1H-pyrazol-3-yl)-2-(naphthalen-2-yl)pyrimidine-4,6-diamine] |  | ≤ 1000
 | ≤ 1000 | ≤ 100 | Cc1cc(Nc2cc(N(C)CCN(C)C)nc(-c3ccc4c(c3)OCO4)n2)n[nH]1 [Example 146, 2-(benzo[d][1,3]dioxol-5-yl)-N^4-(2-(dimethylamino)ethyl)-N^4-methyl-N^6-(5-methyl-1H-pyrazol-3-yl)pyrimidine-4,6-diamine] |  | ≤ 1000
≤ 1000 | ≤ 1000 |  | COCCN(C)c1cc(Nc2cc(C)[nH]n2)nc(-c2cccc3ccccc23)n1 [Example 148, N^4-(2-methoxyethyl)-N^4-methyl-N^6-(5-methyl-1H-pyrazol-3-yl)-2-(naphthalen-1-yl)pyrimidine-4,6-diamine] | 1000 to 10000 | 
≤ 1000 | ≤ 1000 |  | COCCN(C)c1cc(Nc2cc(C)[nH]n2)nc(-c2ccc3ccccc3c2)n1 [Example 149, N^4-(2-methoxyethyl)-N^4-methyl-N^6-(5-methyl-1H-pyrazol-3-yl)-2-(naphthalen-2-yl)pyrimidine-4,6-diamine] | 1000 to 10000 | 
 | ≤ 1000 |  | COCCN(C)c1cc(Nc2cc(C)[nH]n2)nc(-c2cccc3c2OCCO3)n1 [Example 150, 2-(2,3-dihydrobenzo[b][1,4]dioxin-5-yl)-N^4-(2-methoxyethyl)-N^4-methyl-N^6-(5-methyl-1H-pyrazol-3-yl)pyrimidine-4,6-diamine] | 1000 to 10000 | 
 | ≤ 1000 | ≤ 100 | Cc1cc(Nc2cc(N3CCN(C)CC3)nc(-c3ccc(-c4ccccc4)cc3)n2)n[nH]1 [Example 157, 2-(biphenyl-4-yl)-N-(5-methyl-1H-pyrazol-3-yl)-6-(4-methylpiperazin-1-yl)pyrimidin-4-amine] |  | ≤ 1000

Source: patent publication US20090029992A1, “SUBSTITUTED PYRAZOLE COMPOUNDS” (priority 2007, published 2009)
